Measurements from patent US20090318468A1, “PYRAZOLE COMPOUNDS 436” (AstraZeneca AB, priority 2008, published 2009).
“And” between values parts separate entries of the source, which are not always exact repeats. Identical values can stand only once.

Columns and labels:
FGFR1 = FGFR1 (Homo sapiens, UniProt P11362); assay: FGFR1 Kinase Assay - Caliper Echo Dosing; format: biochemical; details: 408 uM ATP, separate test occasions listed, read-out: IC50 (inhibition of FGFR1 kinase activity)
Method: FGFR1 Kinase Assay—Caliper Echo Dosing
To determine inhibition of FGFR1 activity, kinase assays were conducted using Caliper technology.
Kinase activity assays were performed in Greiner 384-well low volume plates, with a total reaction volume of 12 ul per well. Final concentration of FGFR1 active kinase in each reaction well was 7.2 nM. The substrate for each assay was a custom peptide with fluorescent tag (13 amino acids in length, […] with the fluorescene tag on the first K).
Compounds were dispensed directly in to assay plates using a Labcyte Echo 550 acoustic droplet ejection unit. […]
Assay plates were incubated at room temperature for 1.5 h, before the reaction was stopped with the addition of buffer [comprising: 100 mM HEPES—pH 7.5, 0.033% Brij-35 (Sigma Catalogue No. B4184), 0.22% Caliper Coating Reagent #3 (Caliper Life Sciences Catalogue No. 760050), 88 mM EDTA, 5% DMSO]. Stopped assay plates were then read using the Caliper LabChip® LC3000 (which uses microfludics to measure a shift in mobility between fluorescent labelled peptide and the FGFR1 kinase—phosphorylated form of this peptide).
In the assay, compounds were tested at a range of concentrations. […] Percentage inhibition at 1 uM, as expressed herein, is a calculated value based on the curve fit that was generated experimentally. […] This value is calculated using a standard curve fitting software package Origin™. […]

[1] = target: T1, human cytochrome P450 (CYP) 1A2 (Homo sapiens, UniProt P05177); assay: Cytochrome P450 Inhibition Assay, CYP 1A2; format: in vitro ADME; details: test compound 0.1-10 μM, substrate CEC
T1 construct: made in house; host or cells: yeast (microsomal fraction)
T1 sequence (P05177 1-516): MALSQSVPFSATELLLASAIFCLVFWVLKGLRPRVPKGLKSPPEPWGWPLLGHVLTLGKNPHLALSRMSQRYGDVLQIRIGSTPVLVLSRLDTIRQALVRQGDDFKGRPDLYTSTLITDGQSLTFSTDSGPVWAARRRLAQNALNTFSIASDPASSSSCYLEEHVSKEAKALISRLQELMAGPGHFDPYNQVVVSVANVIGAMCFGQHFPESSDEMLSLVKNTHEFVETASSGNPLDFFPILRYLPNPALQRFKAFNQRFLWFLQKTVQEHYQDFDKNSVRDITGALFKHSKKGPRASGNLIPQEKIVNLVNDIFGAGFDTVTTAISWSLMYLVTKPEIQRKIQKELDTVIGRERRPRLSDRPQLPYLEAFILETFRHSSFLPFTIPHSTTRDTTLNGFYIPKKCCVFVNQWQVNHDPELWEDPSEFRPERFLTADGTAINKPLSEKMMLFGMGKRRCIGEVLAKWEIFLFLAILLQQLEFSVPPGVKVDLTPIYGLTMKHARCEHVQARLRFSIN
Method: Cytochrome P450 Inhibition Assay
The inhibitory potential (IC50) of test compounds against 5 human cytochrome P450 (CYP) isoforms (1A2, 2C9, 2C19, 3A4 and 2D6) was assessed using an automated fluorescent end point in vitro assay modified from Crespi (Crespi and Stresser, J Pharmacol Toxicol Methods 2000, 44: 325-331). Microsomal subcellular fractions prepared from Yeast cell lines expressing each human CYP isoform were used as an enzyme source in this assay. The activity of the 5 major human CYPs was determined from the biotransformation of a number of coumarin substrates to fluorescent metabolites, in the presence of NADPH. […] Comparison of the fluorescence observed in the presence of varying concentrations of test compound with that seen in its absence allowed an IC50 value to be calculated. […] The appropriate solvent controls and substrate blanks were included in each experiment to assess control activity and identify any inherent fluorescence due to the test compounds. […] The plates were read on a fluorimeter (Spectrafluor Plus) at the appropriate excitation and emission wavelengths (listed in Table 2) and the percent activity, corrected for control, was plotted against the test compound concentration.

FGFR1, sequence (P11362 22-822): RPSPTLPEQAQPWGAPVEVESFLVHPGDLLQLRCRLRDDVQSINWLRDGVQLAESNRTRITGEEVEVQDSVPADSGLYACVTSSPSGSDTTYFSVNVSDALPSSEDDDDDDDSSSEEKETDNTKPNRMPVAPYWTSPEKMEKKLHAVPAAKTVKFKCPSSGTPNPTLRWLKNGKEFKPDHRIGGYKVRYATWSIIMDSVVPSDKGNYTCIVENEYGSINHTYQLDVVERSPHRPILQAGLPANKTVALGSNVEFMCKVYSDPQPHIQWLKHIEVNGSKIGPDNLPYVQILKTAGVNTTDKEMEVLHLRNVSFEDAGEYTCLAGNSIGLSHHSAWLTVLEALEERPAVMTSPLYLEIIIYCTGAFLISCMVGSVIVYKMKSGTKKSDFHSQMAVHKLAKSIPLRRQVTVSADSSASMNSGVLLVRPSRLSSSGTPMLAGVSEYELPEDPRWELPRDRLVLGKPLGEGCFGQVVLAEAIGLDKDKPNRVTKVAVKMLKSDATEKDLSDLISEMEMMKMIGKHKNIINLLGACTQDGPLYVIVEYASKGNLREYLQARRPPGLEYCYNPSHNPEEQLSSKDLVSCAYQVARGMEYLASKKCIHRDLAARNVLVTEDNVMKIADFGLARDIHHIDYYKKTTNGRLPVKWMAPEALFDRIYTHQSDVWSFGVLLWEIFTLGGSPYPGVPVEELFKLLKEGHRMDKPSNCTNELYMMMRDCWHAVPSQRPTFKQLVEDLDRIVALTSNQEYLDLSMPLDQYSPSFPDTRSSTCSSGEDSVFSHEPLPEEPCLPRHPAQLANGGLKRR

IC50 (FGFR1)	IC50 [1]	Compound
0.74 nM	> 10000 nM	COc1cc(CCc2cc(NC(=O)c3ccc(N4CCN(C)[C@@H](C)C4)cc3)[nH]n2)cc(OC)c1 [Example 1a, (S)—N-(3-(3,5-Dimethoxyphenethyl)-1H-pyrazol-5-yl)-4-(3,4-dimethylpiperazin-1-yl)benzamide]
1.1 nM and 0.64 nM and 0.76 nM	> 10000 nM	COc1cc(CCc2cc(NC(=O)c3ccc(N4CCN(C)[C@H](C)C4)cc3)[nH]n2)cc(OC)c1 [Example 1b, (R)—N-(3-(3,5-Dimethoxyphenethyl)-1H-pyrazol-5-yl)-4-(3,4-dimethylpiperazin-1-yl)benzamide]
